This is an account of results in patent US20090105278A1, “Selective inhibitors of human corticosteroid syntheses” (Universitat Des Saarlandes, priority 2004, published 2009).

In one series the target is T1, bovine adrenal CYP11B (Bos taurus, UniProt P15150).
T1 sequence (P15150 25-503): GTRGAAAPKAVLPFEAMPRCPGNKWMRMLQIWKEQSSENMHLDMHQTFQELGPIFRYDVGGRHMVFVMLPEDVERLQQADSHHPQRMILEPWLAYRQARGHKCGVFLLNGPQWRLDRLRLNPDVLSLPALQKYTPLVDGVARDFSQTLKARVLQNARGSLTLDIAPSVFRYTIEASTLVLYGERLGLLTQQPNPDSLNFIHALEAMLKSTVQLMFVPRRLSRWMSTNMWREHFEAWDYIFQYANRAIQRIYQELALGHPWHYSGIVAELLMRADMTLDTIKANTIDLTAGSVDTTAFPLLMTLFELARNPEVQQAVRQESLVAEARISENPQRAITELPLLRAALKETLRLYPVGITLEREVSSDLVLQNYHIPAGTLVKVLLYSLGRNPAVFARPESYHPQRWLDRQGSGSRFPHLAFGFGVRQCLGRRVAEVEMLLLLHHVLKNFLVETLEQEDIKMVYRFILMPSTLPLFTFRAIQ
As to the kind of experiment: Percent inhibition of bovine CYP11B (adrenal mitochondria). The settings on record: corticosterone substrate 200 μM, inhibitor 1 μM; for % Inhibition bovine bCYP11B: bovine adrenal mitochondria, 1 mg/ml protein; for inhibition at 1 µM: read-out: % Inhibition bovine bCYP11B, bovine adrenal mitochondria, 1 mg/ml protein.

For a further series, the target named is T2, human CYP11B2 (Homo sapiens, UniProt P19099).
T2 sequence (P19099 25-503): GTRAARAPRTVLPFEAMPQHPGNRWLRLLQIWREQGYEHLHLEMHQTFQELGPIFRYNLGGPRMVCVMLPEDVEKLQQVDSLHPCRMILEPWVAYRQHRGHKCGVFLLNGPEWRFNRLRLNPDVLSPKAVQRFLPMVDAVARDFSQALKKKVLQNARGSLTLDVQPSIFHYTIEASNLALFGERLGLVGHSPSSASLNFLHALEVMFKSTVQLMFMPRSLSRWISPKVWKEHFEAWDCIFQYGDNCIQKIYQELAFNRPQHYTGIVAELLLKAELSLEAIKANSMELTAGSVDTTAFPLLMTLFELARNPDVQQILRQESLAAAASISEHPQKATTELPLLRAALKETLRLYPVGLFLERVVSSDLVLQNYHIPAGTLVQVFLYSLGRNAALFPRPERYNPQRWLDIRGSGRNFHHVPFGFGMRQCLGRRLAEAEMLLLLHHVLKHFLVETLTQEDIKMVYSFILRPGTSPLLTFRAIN
In words: V79 MZh 11B2 cells inhibition test. The settings on record: for IC50: hamster fibroblasts which express human CYP11B2, deoxycorticosterone substrate 100 nM, read-out: IC50 V79 11B2 hCYP11B2. Also on record: expressed in transfected cells; host or cells: V79 MZh11B2 (Chinese hamster lung fibroblasts). In kind it is cell-based. The procedure:
Both cell lines were cultured in DMEM^+ containing […] and the antibiotics penicillin and streptomycin (10%) for protection from bacterial contamination. The cells were passaged every 2-3 days after treatment with trypsin/EDTA because the doubling rate was 1-2 days depending on the number of cells. […] When there was further need, freshly thawed cells were employed.
Thereafter, the plate was stored at 37° C. and […] in a CO2 incubator. The V79 MZh 11B1 cells were incubated for 120 min, and the V79 MZh 11B2 cells were incubated for 40 min. Controls without inhibitor were treated in the same way. The enzyme reactions were quenched by extracting the supernatant with 500 μl of EtOAc. The samples were centrifuged (10,000 g, 2 min), the solvent was removed and evaporated.
For V79 MZh11B2, the conversion rate was obtained in accordance with equation 3: […]
It was calculated by determining the percent inhibition for at least 3 different inhibitor concentrations, which must all be in the linear range of the sigmoidal IC50 curve (log C/% inhibition).
The calculation was effected by linear regression. The values determined were used only if they formed a straight line with a reliability of […].
The plate was developed twice with the mobile solvent chloroform:methanol:water (300:20:1). Unlabeled 11-deoxycorticosterone and corticosterone were applied as a reference for the CYP11B1 reaction. For the CYP11B2 reaction, 11-deoxycorticosterone, corticosterone, 18-hydroxycorticosterone and aldosterone were used as references. The detection of the unlabeled references was effected at 260 nm. Subsequently, imaging plates (BAS MS2340, for ^14C samples, Raytest, Straubenhardt, Germany) were exposed to the HPTLC plates for 48 h. The imaging plates were scanned with the phosphoimager system Fuji FLA 3000 (Raytest, Straubenhardt, Germany), and the steroids were quantified.

Counter-ions that a name gives are not always drawn.

Experimental for bovine adrenal CYP11B: Bovine adrenal glands obtained freshly after slaughtering were stored in ice cold Tris-sucrose buffer (0.25 M sucrose, 0.05 M Tris; pH 7.4) until processed. After removing the appending adipose tissue, the adrenal medulla was carefully separated from the adrenal cortex using scissors. The pieces of adrenal cortex were coarsely comminuted with scissors, washed with Tris-sucrose buffer, weighed and finely comminuted in the above buffer (2 ml per g of tissue) with a hand mixer. Thereafter, the tissue was homogenized with an Ultra-Turrax mixer. For separating coarse cell debris and the nuclei, the homogenizate was centrifuged twice for 15 min at 900 g and 4° C. The supernatant was subsequently centrifuged for 35 min at 11,000 g for recovering the mitochondrial fraction. For purifying the mitochondrial fraction, the precipitate was resuspended in Tri-sucrose buffer and again centrifuged at 11,000 g for 35 min. This washing step was performed two times in total. After the last centrifugation, the pellet was resuspended in Tris-sucrose buffer containing 0.001 M EDTA and frozen at −70° C.
The substrate corticosterone was dissolved in methanol and diluted with Tris buffer to a final concentration of 200 μM. The inhibitors were also dissolved in methanol and diluted with buffer to a final concentration of 1 μM. […] Corticosterone (200 μM) was incubated with inhibitor (1 μM) and mitochondrial enzyme (0.5 mg/0.5 ml) with the addition of a regenerating system consisting of NADP^+ (1 mM), glucose-6-phosphate (7 mM) and glucose-6-Phosphate dehydrogenase (1 IU/0.5 ml). Up to 5 inhibitors per test could be incubated in duplicate. […] After preincubation for 5 minutes (30° C.; water bath), the reaction was started by adding mitochondrial suspension. […] The blind values were admixed with 250 μl of HCl before the enzyme was pipetted in. The steroids were separated off by shaking with 1 ml of ethyl acetate (10 min). After centrifugation (15,000 g, 10 min), 900 μl of the organic phase was shaken with 250 μl 1 N NaOH (10 min), and 800 μl of supernatant was again washed with 250 μl of buffer. […] 18-OH-corticosterone (retention time: 10 min) and corticosterone (retention time: 21 min) were separated. The height of the 18-OH-corticosterone peak was used for evaluation. The percent inhibition of the 18-hydroxylation of corticosterone by the inhibitors was based on the mediums of the control incubation, taking the blind values into account.

For the compound “5-[(Z)-(5-Chloro-2,3-dihydro-1H-indene-1-ylidene)methyl]-1H-imidazolium oxalate [Compound 48b]”, the “% Inhibition bovine bCYP11B” value at bovine adrenal CYP11B came out at 87%. In addition, the “Selectivity factor IC50 (CYP11B1)/IC50 (CYP11B2)” value on human CYP11B2 (V79 cells expressing human CYP11B1 or CYP11B2) is recorded as “five times”.

Compound `C(=C1/CCCc2ccccc21)/c1cnc[nH]1` [Compound 41a, 5-[(E)-3,4-Dihydronaphth-1(2H)-ylidenemethyl]-1H-imidazole] yielded a melting point of 136 to 138 °C. Besides, on bovine adrenal CYP11B, the inhibition at 1 µM amounted to 40%.

As to `C(=C1/CCc2ccccc21)/c1cnc[nH]1` [Compound 42a, 5-[(E)-2,3-Dihydro-1H-indane-1-ylidenemethyl]-1H-imidazole], at bovine adrenal CYP11B, the inhibition at 1 µM was determined as 62%. The IC50 on human CYP11B2 was 41 nM.

For `C(=C1\CCc2ccccc21)/c1cnc[nH]1` [Compound 42b, 5-[(Z)-2,3-Dihydro-1H-ind-1-ylidenemethyl]-1H-imidazolium oxalate], at bovine adrenal CYP11B, the “% Inhibition bovine bCYP11B” value is reported as 94% and the inhibition at 1 µM was around 90%. The IC50 on human CYP11B2 was determined as 11 nM.

Consider `Cl.Clc1ccc2c(c1)CC/C2=C\c1cnc[nH]1` [Compound 48a, 5-[(E)-(5-Chloro-2,3-dihydro-1H-indene-1-ylidene)methyl]-1H-imidazolium chloride], for which the melting point is 238 °C. Moreover, the inhibition at 1 µM on bovine adrenal CYP11B came to 45%.

Turning to `Brc1ccc2c(c1)CC/C2=C\c1cnc[nH]1.Cl` [Compound 49a, 5-[(E)-(5-Bromo-2,3-dihydro-1H-indene-1-ylidene)methyl]-1H-imidazolium chloride], the melting point was 228 °C. The inhibition at 1 µM on bovine adrenal CYP11B turned out to be 63%. In addition, the IC50 at human CYP11B2 was determined as 92.8 nM.

One may read the melting point as the temperature of the solid-liquid transition. What is called IC50 is the midpoint of a concentration-inhibition curve.
